In paper PMC9405135, “Tuning the Biological Activity of Camphorimine Complexes through Metal Selection” (Antibiotics, 2022):
Like-named read-outs stand apart in the source and are kept apart here.

Assays:
[1] = Reduction potential by cyclic voltammetry; type: physicochemical; parameters: E1/2red (reduction potential, footnote d): reference not given here; details: Bu4NBF4/CH3CN electrolyte, ±10 mV; for Epred (reduction potential): versus SCE; for E1/2red (reduction potential, footnote d): half-wave potential, footnote d prints [28]
[2] = test system: OVCAR3 cells; experiment: MTT cytotoxicity, OVCAR3 ovarian cancer cells; details: for IC50: read-out: IC50 OVCAR3; for SI = selectivity index = IC50(HDF)/IC50(OVCAR3): HDF versus OVCAR3, 24 h
[3] = test system: ΦX174 supercoiled DNA; parameters: method as in PMID 31671298; details: previously shown; cited from earlier work
[4] = test system: A2780 cells; experiment: MTT cytotoxicity, A2780 ovarian cancer cells; details: read-out: IC50 A2780, 24 h incubation
[5] = test system: V79 fibroblasts; experiment: MTT cytotoxicity, V79 normal fibroblasts; details: read-out: IC50 V79, 24 h incubation
[6] = test system: HDF fibroblasts; experiment: MTT cytotoxicity, HDF normal fibroblasts; details: read-out: IC50 HDF, 24 h incubation
[7] = test system: OVCAR3 cells; experiment: Lipid peroxidation (MDA, TBARS) assay; type: cell-based, human; details: OVCAR3 cells treated 6 h; 1 at 100 μM, 5 at 50 μM, 9 at 20 μM; mean ± SD
Experimental: Measurement of MDA relies on the detection of thiobarbituric acid (TBA)-reactive compounds generated from the decomposition of lipid peroxidation products. This reaction, which takes place under acidic conditions at 95 °C, results in the formation of an MDA–TBA adduct that can be quantified by its absorbance at 532 nm. […] Additionally, the MDA levels induced by the complexes correlated with the levels of ROS, pointing the involvement of ROS production in the mechanism of action of complexes under study and, consequently, the peroxidation of the membrane lipids, as supported by the correlation between the production of ROS and the levels of lipid peroxides, particularly for complexes 5 and 9.
The malondialdehyde (MDA) content in lipid extracts of OVCAR3 cells was measured using a colorimetric kit (BioVision, Milpitas, CA, USA), a method that relies on the reaction with thiobarbituric acid (TBARS assay). Briefly, OVCAR3 cells (5 × 10^5 cells/2 mL medium) were seeded in six-well plates and left to adhere for 24 h. […] The resulting cell pellet was treated following the kit recommended protocol. […] Then, 200 μL aliquots were then taken and transferred to a 96-well plate for MDA quantification at 532 nm. […]

[8] = test system: ΦX174 supercoiled DNA; experiment: Complex-DNA interaction, agarose gel electrophoretic mobility; type: binding; details: 0.5-15 µM complex, 24 h at 37 °C
Experimental: Therefore, we focused our studies mostly on the silver (5 and 7) and gold complexes (8 and 9) having the monocamphor ligands ^1A and ^2A, respectively. Complex 1 was also included for comparison. We evaluated the complexes’ ability to interact with DNA, by visualizing in vitro conformational changes in ΦX174 supercoiled DNA using agarose gel electrophoresis assays.
The DNA binding activity of the metal complexes was assessed through their ability to alter the electrophoretic mobilities of the covalently closed circular (ccc) and open circular (oc) forms of ΦX174 supercoiled DNA as previously described. Briefly, a mixture containing 200 ng of ϕX174 DNA (Promega, Madison, WI, USA) and different concentrations of the metal complexes was prepared. After incubation for 24 h at 37 °C in the dark, the samples were run in a 0.8% agarose gel in TAE buffer for 3 h at 90 V. The gel obtained was then stained using a 3× GelRed® (Biotium, Fremont, CA, USA) solution in H2O and imaged in an AlphaImagerEP (Alpha Innotech, San Leandro, CA, USA).

[9] = test system: OVCAR3 cells; experiment: Intracellular ROS detection by H2DCF-DA; type: cell-based, human; details: 1-4 at 10-100 µM, 5-9 at 0.1-50 µM, 1 h
Experimental: The molecular probe dichlorodihydrofluorescein diacetate (H2DCF-DA) was used to assess the levels of ROS, e.g., hydrogen peroxide, hydroxyl radicals, and peroxynitrite, generated in response to the effect of the complexes. This compound suffers oxidation and produces a fluorescent compound (DCF) in the presence of ROS [31]. The induction of intracellular ROS by the compounds (metal precursors and copper, silver, and gold complexes) was analyzed at λexc. = 492 nm 517 nm emission using a Varioskan LUX scanning multimode reader (Thermo Fisher Scientific).
Intracellular ROS levels, mainly H2O2, were measured using dihydro-2′7′dichlorofluorescein diacetate (H2DCF-DA). This cell-permeable molecular probe is de-esterified within the cell and turns to highly fluorescent 2′,7′-dichlorofluorescin (DCF) upon oxidation with ROS. For the assays, OVCAR3 cells (2 × 10^4 cells /well) were seeded in 96-well plates and left to adhere overnight. The medium was then replaced with a solution of 10 μM H2DCF-DA in colorless DMEM (FluoroBrite™ DMEM, Gibco®, Waltham, MA, USA) and cells were incubated at 37 °C for 30 min. […] DCF fluorescence was measured using a Varioskan Lux multimode microplate reader (ThermoFisher Scientific, Waltham, MA, USA) at 492 nm excitation and 517 nm emission. Results of fluorescence were expressed as the fold change in fluorescence levels compared with controls.

[10] = test system: OVCAR3 cells; experiment: Superoxide generation (NBT assay); type: cell-based, human; details: 1 at 50 and 100 µM, 5 at 20 and 50 µM, 9 at 10 and 20 µM
Experimental: The ROS species superoxide (O2^•−) can be detected with NBT, a cell-permeant dye that can cross the cell membrane and be reduced by intracellular free radicals (superoxide anions) to form formazan particles, which can be detected as blue precipitates in the cells.
The nitro blue tetrazolium (NBT) assay was carried out adapting a previously described method. This assay was used to determine the ability of cells to produce superoxide anion upon treatment with the compounds. During the treatment, NBT is reduced by superoxide anion, resulting in dark-blue formazan particles. […] Then, the medium was discarded, and the blue formazan particles were dissolved in 200 μL of 90% DMSO (90% DMSO:10% NaOH 0.1 N with 0.1% SDS). The resulting NBT formazan was measured at 560 nm using a plate spectrophotometer.

[11] = test system: caspase-3/7 in OVCAR3 cells; experiment: Caspase-3/7 activation (Caspase-Glo 3/7 assay); type: cell-based, human; details: OVCAR3, 24 h, concentrations below IC50
Experimental: Caspases are a family of cysteine proteases playing central roles in the regulation of cellular processes such as programmed cell death. Among them, caspase-3 and -7 are considered executioners of the apoptosis pathways. We investigated the possible activation of apoptotic events in OVCAR3 cells treated by camphorimine complexes 1, 5, and 9.
The activities of caspase-3 and -7 were assessed using the Caspase-Glo® 3/7 assay (Promega, Madison, WI, USA). The assay kit provides a proluminescent caspase-3/7 substrate (DEVD-aminoluciferin) and luciferase in a reagent optimized for caspase-3/7 activity, luciferase activity, and cell lysis. In the presence of caspase 3/7, this substrate is cleaved, and aminoluciferin is released and consumed by luciferase, which generates a luminescent signal proportional to the caspase activity present in the cells. The assay was carried out in a 96-well plate format with the OVCAR3 cells treated with complexes 1, 5, and 9 for 24 h at concentrations below their IC50 according to a previously described method. […] Results (mean ± SD) were expressed as relative luminescent units (RLU).

[12] = Complex stability in cellular medium by UV/Vis spectroscopy; type: physicochemical; details: DMSO, DMEM with 1% DMSO, DMEM with 1% DMSO + 10% FBS; 48 h
Experimental: The stability in cellular medium of the complexes was evaluated for 48 h, using UV/Vis spectroscopy. The absorption spectrum was recorded for each complex dissolved in (a) 100% DMSO, (b) colorless DMEM with 1% DMSO, and (c) colorless DMEM with 1% DMSO + 10% FBS [30]. […] As low concentrations were used in the biological studies, we expect that both the stability and the solubility were not impaired.

[13] = test system: OVCAR3 cells; experiment: Metal distribution in single cells by nuclear microscopy (PIXE); type: cell-based, human; details: 1 at 45 μM 24 h, 9 at 30 μM 3 h
Experimental: The distribution of copper and gold in treated cells was inspected by nuclear microscopy, making use of the PIXE technique to map and assess elemental contents in single cells. The nuclear microscopy techniques offer several advantages, regarding relatively high spatial resolution and sensitivity for a wide range of elements with physiological roles and those with pharmaceutical interest, in whole cells, while preserving most of their in vivo conditions.
OVCAR3 cells (ca. 1 × 10^6) were prepared for nuclear microscopy experiments by seeding the cells on a 100 nm thick silicon nitride membrane (Silson Ltd., Southam, UK), contained in six-well plates, and incubated overnight as described previously. Cells were incubated with complexes 1 and 9 at concentrations corresponding to the IC50 (45 μM for 24 h and 30 μM for 3 h, respectively). After incubation, the cells were analyzed at the nuclear microscopy facility of the C2TN/IST with a 2.0 MeV proton beam focused down to 3 × 4 µm^2 dimensions. Images of the micro-distributions of Cu and Au in OVCAR3 cells, as well as minor and trace physiological elements (e.g., P, S, K, and Fe), were obtained using the PIXE multielemental technique. Images of whole OVCAR3 cells were taken with 30 × 30 µm^2 scan sizes. Acquisition of data imaging and spectral analysis was performed using OMDAQ 2007 (Oxford Microbeams Ltd., Oxford, UK).

Epred (reduction potential) [1]	E1/2red (reduction potential, footnote d) [1]	Compound	IC50 ([2]; MTT, 24 h incubation)	IC50 [4]	IC50 [5]	IC50 [6]	SI = selectivity index = IC50(HDF)/IC50(OVCAR3) [2]	also measured
–	0.58 ^d Volt	[Cl][Cu][Cl] [CuCl2, reference compound]	> 100 µM	–	–	–	–	–
−0.46 Volt	–	[Cl][Cu] [CuCl, reference compound]	> 100 µM	–	–	–	–	–
−0.49 Volt	–	[{CuCl}2{OC10H14N(C6H4NH2)}] [Complex 1]	72.4 ± 9.1 µM	45.6 ± 11 µM	34.5 ± 9.7 µM	116 ± 27 µM	1.6	MDA (lipid peroxide content) [7]: 290 ± 15 pmoles/10^6 Cells; interaction with DNA (change of electrophoretic mobility) [8]: none of them interacted significantly with DNA; production of ROS (H2DCF-DA, relative to untreated cells) [9]: followed a similar trend; superoxide ROS levels (NBT reduction) [10]: increased the ROS levels in a dose-dependent manner; caspase-3/7 activation [11]: low caspase activation; stability in cellular medium (UV/Vis spectra) [12]: slightly lower; cellular distribution of the metal [13]: uncharacteristic map of copper distribution
–	−0.46 ^d Volt	[{CuCl}3{(OC10H14N)2,μ-C6H4-p)}] [Complex 3]	37.5 ± 7.7 µM	43.1 ± 9.1 µM	44.9 ± 10 µM	48.3 ± 27 µM	1.3	–

More lines, now with the values behind:

Compound	Epred (reduction potential) [1]	E1/2red (reduction potential, footnote d) [1]	IC50 ([2]; MTT, 24 h incubation)	IC50 [4]	IC50 [5]	IC50 [6]	SI = selectivity index = IC50(HDF)/IC50(OVCAR3) [2]	also measured
CC(=O)[O-].[Ag+] [Ag(CH3COO), silver acetate, reference compound]	−0.043 Volt	–	3.38 ± 2 µM	–	–	–	–	–
O=[N+]([O-])[O-].[Ag+] [Ag(NO3), silver nitrate, reference compound]	0.18 Volt	–	–	–	–	–	–	IC50 [2]: 2.66 ± 1 µM
N.N.[Cl][Pt][Cl] [cisplatin, reference compound]	–	–	13 ± 4.7 µM	21 ± 5 µM	–	–	–	interaction with DNA (change of electrophoretic mobility) [3]: bind to DNA and induce extensive electrophoretic mobility changes in DNA
[CuCl2((OC10H14N)2C6H4-p)] [Complex 2]	–	0.48 ^d Volt	37.6 ± 8.5 µM	49.5 ± 14 µM	> 100 µM	> 100 µM	>3	–
[CuCl2(OC10H14NC6H5)]·HCl·½H2O [Complex 4]	–	0.47 ^d Volt	115 ± 25 µM	> 100 µM	> 100 µM	> 100 µM	>1	–
